Source: patent US20190262469A1 (priority 2015, published 2019)
In brackets after ≈: the same amount, converted by molar mass. Where no end group is shown, it is not given here.

B1: EB2-binding peptide identified via phage display, conjugated to the supported lipid bilayer of DOPC protocells (peptide)
peptide: TGAILHP
modifications: also: conjugated to protocell lipid bilayer, linker not described
notes: also called ephrin B2-targeting peptide; targeting peptide

Tests used:
alphaviruses = conditions: cited from earlier work
[1] = in vivo; cited from earlier work
E. coli ER2420/pACYC177 = test: microbe, parasite or virus in culture; assay type: cell-based; conditions: Escherichia coli, test array/20-well test strips (FIG. 34, 35)
[2] = system: E. coli ER2420 with pACYC177 or pACYC184; assay type: cell-based
[3] = buffer; cited from earlier work
[4] = target: T1, human ephrin B2 (EB2) expressed on cells (CHO-K1 transfected to express ephrin B2) (human, UniProt P52799 28-333); test: fluorescence of labelled DOPC protocells modified with the ligand on ephrin B2-expressing cells, against unmodified DOPC protocells (FIGS. 3A-B)
T1 construct: whole, on cells; Cellular receptor for Nipah and Hendra viruses; also called CHO-K1/EB2; CHO-K1/ephrin B2
T1 sequence (P52799 28-333): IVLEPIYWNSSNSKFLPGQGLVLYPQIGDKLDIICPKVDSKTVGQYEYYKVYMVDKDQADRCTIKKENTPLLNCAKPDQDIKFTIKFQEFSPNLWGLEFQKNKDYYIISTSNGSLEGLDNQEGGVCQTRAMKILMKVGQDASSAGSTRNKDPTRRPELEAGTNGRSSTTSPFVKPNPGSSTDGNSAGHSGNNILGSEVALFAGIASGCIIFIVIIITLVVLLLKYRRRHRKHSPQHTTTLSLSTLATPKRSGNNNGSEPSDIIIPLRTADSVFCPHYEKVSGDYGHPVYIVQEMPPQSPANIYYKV

| Molecule | MIC (E. coli ER2420/pACYC177) [µg/mL] | killing action detected by delta-Ct for PMA treatment [2] | also measured |
| --- | --- | --- | --- |
| NC(=O)c1ncn([C@@H]2O[C@H](CO)[C@@H](O)[C@H]2O)n1 [Ribavirin] |  |  | IC50 values for several alphaviruses (alphaviruses): low micromolar range; circulation half-life [1]: < 48 h |
| CC1(C)S[C@@H]2[C@H](NC(=O)[C@H](N)c3ccc(O)cc3)C(=O)N2[C@H]1C(=O)O [amoxicillin] | > 128 | in the susceptible strain (pACYC184) and not in the resistant strain (pACYC177) | half-life in aqueous media/solution [3]: on the order of a few hours |
| CO/N=C(\C(=O)N[C@@H]1C(=O)N2C(C(=O)O)=C(COC(C)=O)CS[C@H]12)c1csc(N)n1 [cefotaxime] |  | in both strains |  |
| O=C(O)c1cn(C2CC2)c2cc(N3CCNCC3)c(F)cc2c1=O [ciprofloxacin] | < 0.031 | rapidly bactericidal to both E. coli at low concentrations |  |
| O=C(O)[C@H]1/C(=C/CO)O[C@@H]2CC(=O)N21 [clavulanic acid] |  |  | half-life in aqueous media/solution [3]: a few hours |
| NC[C@H]1O[C@H](O[C@H]2[C@H](O)[C@@H](O[C@H]3O[C@H](CO)[C@@H](O)[C@H](N)[C@H]3O)[C@H](N)C[C@@H]2N)[C@H](O)[C@@H](O)[C@@H]1O [kanamycin] | > 256 |  |  |
| CO[C@H]1/C=C/O[C@@]2(C)Oc3c(C)c(O)c4c(O)c(c(/C=N/N5CCN(C)CC5)c(O)c4c3C2=O)NC(=O)/C(C)=C\C=C\[C@H](C)[C@H](O)[C@@H](C)[C@@H](O)[C@@H](C)[C@H](OC(C)=O)[C@@H]1C [rifampicin] | 8 (≈ 9.72 µM) |  |  |
| B1 |  |  | fold increase in selective binding and internalization [4]: 100 fold |
